Measured values taken from patent US20220105051A1, “COMPOUNDS FOR INCREASING MHC-I EXPRESSION AND MODULATING HISTONE DEACETYLASE ACTIVITY” (Cava Healthcare Inc., priority 2019, published 2022).
“Also recorded” adds a separate entry of the source.

Columns and labels:
[1] = Water solubility; type: physicochemical
[2] = system: MHC-I; assay: MHC-I surface expression by flow cytometry; type: cell-based, murine; settings: A9 cells, 48 hours after treatment, flow cytometry
Description: A9 and TC-1 cell lines were trypsinized (0.05%, Gibco), washed twice with PBS (Gibco), and stained with allophycocyanin (APC) conjugated anti-mouse H-2K^b antibody (1:200, Biolegend) suspended in 150 μL of FACS buffer (PBS+2% FBS) for 20 minutes at 4° C. Cells were washed twice with PBS and re-suspended in 200 μL FACs buffer containing 1 μL of 7-aminoactinomycin (7AAD) viability stain (Biolegend). Flow cytometry was performed on the LSRII (BDBiosciences) and analysis was done using FlowJo (Flow cytometry Analysis Software).
The marine extract library was provided by Dr. Raymond J. Andersen (UBC). The marine invertebrate specimens were collected by SCUBA diving at a 40 metre depth from regions of high marine biodiversity in Papua New Guinea, Indonesia, Thailand, Sri Lanka, Dominica, Brazil, British Columbia, South Africa, and Norway 35. Previously curcuphenol was identified as the active component in one of the marine extracts showing induction of the APM, and since then two new generations of curcuphenol analogues were synthesized in the lab of Dr. Raymond Anderson. To evaluate the ability of these compounds to induce MHC-I surface expression, A9 cells were plated in 6 well plates at 10^5 cells/well and incubated for 24 hours at 37° C. in a 5% CO2 humidified atmosphere. After 24 hours the medium was removed and replaced with medium containing varying concentration of synthesized compounds (6.7 μg/mL, 20 μg/mL, 60 μg/mL). […] Following treatment, cells were incubated for 48 hours at 37° C. with 5% CO2 and humidified atmosphere. After incubation cells were subjected to flow cytometry.
Evaluation of MHC-I surface expression by flow cytometry. LMD:TAP-1 cells or A9 cells were plated in 6 well plates at a concentration of 10,000 cells per well in a 2 mL volume. The next day, cells were treated with the indicated concentrations of the compounds and incubated for 48 hours at 37° C. After incubation, the cells were trypsinized, washed and stained with APC-conjugated anti-mouse MHC-I (specifically anti-H-2K^b) antibody (Biolegend) and assessed by flow cytometry analysis.

[3] = system: A9 metastatic tumour cells; assay: In vivo tumour trial; parameters: species or system C57BL/6 mice; settings: daily i.p. for 12 days, P02-113 and P03-97-1 5.2 mg/kg, TSA 0.5 mg/kg
Description: (§1) The metastatic cell line, A9, was grown in the DMEM, as previously described without, the addition of antibiotics (penicillin and streptomycin, P/S). Once cells reached 75-80% confluence, they were trypsinized (0.05%, Gibco) and washed with HBSS (Hanks balanced salt solution). The cells were counted using the Bio-RAD TC20 automated cell counter and suspended to a concentration of […] in HBSS. Thirty-two synergistic female C57BL/6 mice, between the ages 6-8 weeks, were subcutaneously injected in the right flank with 50 μL containing 5×10^4 A9 metastatic tumour cells. Seven days following tumour inoculation i.p. treatment began daily for 12 days. Four treatment groups were studied, with eight animals per group. […] Body weights were measured three times a week and once tumours developed they were measured with calipers and tumour volume was calculated. Twelve days after starting treatment, mice were euthanized and tumours were collected and weighed. The tumours were then processed for flow cytometry analysis. Tumours were cut into small pieces and incubated RPMI (Gibco; with P/S 0.5%, Sodium pyruvate 1%, and L-glutamine 1%) and 3 mg/mL collagenase A (Roche) for one hour at 37° C. with shaking. Dissociated tumour cells were passed through a 100 μm filter and spun down at 15,000×RCF for 3 minutes. The pellet was washed once in FACs buffer (2% FBS in PBS) and spun down. The pellet was next suspended in red blood cell (RBC) lysis buffer and kept at room temperature for 5 minutes before being neutralized by the addition of 5 ml of PBS and spun down. If pellets were still found to contain RBCs this step was repeated. Once all RBCs were removed cells were suspended in FACs buffer to a concentration of 10^7 cells/mL. A total volume of 200 ul of cells from each tumour were added to a 96 well plate (Falcon) and incubated with Fc Blocker (Biolegend, 1:400) for twenty minutes at 4° C. The 96 well plate was spun down at 1,200 rmp for three minutes and supernatant was removed. The cells were then suspended in 150 ul of FACs buffer containing anti-CD8a (PE-Cy7, 1:200, eBioscience) and CD4 (APC, 1:200, Biolegend) antibodies and incubated at 4° Celsius for 20 minutes. The cells were washed twice and spun down using FACs buffer before being to flow cytometry tubes in a final volume of 200 ul of FACs buffer containing 7AAD (Biolegend 1:200). Flow cytometry was performed on LSRII (BDBiosciences) and analysis was done using FlowJo (Flow cytometry Analysis Software).
Treatment of tumour-bearing mice with identified compounds. 5×10^4 A9 cells suspended in HBSS were subcutaneously (s.c.) transplanted into the right flank of 32 eight-week-old female C57BI/6 mice, as previously described 75. […] Body weight and tumours (once established) were measured every 2-4 days (more often as tumour size increased). Tumours were measured using calipers and volume was calculated as following: tumour volume=length×width^2. The tumour growth rate was assessed using methods previously described^28.

[4] = system: CD4+ and CD8+ T cells; assay: Analysis of tumour-infiltrating lymphocytes; type: in vivo, C57BL/6 mice; settings: after 12 days of treatment, flow cytometry
Description: as §1
Analysis of tumour-infiltrating lymphocytes (TILs). Tumour-infiltrating T lymphocyte (either CD4^+ or CD8^+ T cells) infiltration was evaluated in tumours of mice following 2-week treatment with either compounds or controls. Tumours at the site of initial injection were removed from tumour-bearing mice. Following tumour dissociation in the presence of collagenase A (Roche) and erythrocyte lysis, the tumour cells were then washed and prepared as single-cell suspensions to detect TILs. Before staining with antibodies, the cells were incubated with Fc Blocker (Ebiosciences) for 20 minutes at 4° C. The tumour cells were then washed and stained with anti-CD4-APC (Biolegend), anti-CD8-PECy7 (eBiosciences) and 7-AAD (Biolegend) viability stain. Using flow cytometry, 7-AAD positive dead cells were gated out and the remaining population was assessed for CD4^+ and CD8^+ expression. Data were acquired using a BD™ LSR II flow cytometer (BD Biosciences) with FACSDiva™ software and analyzed with FlowJo software (Treestar).

[5] = literature; cited from earlier work
[6] = system: MHC-I; settings: earlier work of the lab; cited from earlier work
[7] = system: TAP-1; assay: High-throughput cell-based screen for TAP-1 induction (EGFP under the TAP-1 promoter); parameters: species or system murine; settings: LMD:TAP-1 cells, 10 ng/mL
Excerpt: Identification of marine natural product extracts with the ability to promote up-regulation of TAP-1 and […] expression in cancer cells: A high-throughput cell-based screen was used for identification of candidate compounds that increase the expression of TAP-1 in the LMD murine metastatic prostate cell line. To assess the induction of TAP-1 expression we used the LMD:TAP-1 cell line, which was transfected with a vector containing EGFP under the TAP-1 promoter^44. The Cellomics™ Arrayscan VTI automated fluorescence imager was used to determine the cell numbers based on DNA staining and the average GFP fluorescence intensity which correlates to the levels of TAP-1 induction (FIG. 24A). […]
Cell-based screening assay. […] Image acquisition, segmentation and analysis of micro plates were carried out using the Cellomics™ Arrayscan V^TI automated fluorescence imager (Thermo Fisher Scientific). […] The target activation algorithm was used to identify the nuclei based on Hoechst fluorescence intensity, apply a cytoplasmic mask and quantitate GFP fluorescence intensity within the cytoplasmic mask area. Average GFP fluorescence intensity (intensity per cell per pixel) and total number of cells per well were determined. […]

Cc1ccc(CCCC(O)C(C)(C)O)c(O)c1 (stereo not shown) [P04-149]
water solubility [1]: water soluble | induction of MHC-I expression at the cell surface [2]: increases MHC-I expression

CC(/C=C/C(=O)NO)=C\[C@@H](C)C(=O)c1ccc(N(C)C)cc1 [TSA, Trichostatin A, reference compound]
tumour volume / tumour growth compared to vehicle control ([3]; A9 tumours): reduced | body weight [3]: remained stable; also recorded: no significant changes | CD4+ T cell infiltration of tumours [4]: no significant infiltration or difference; also recorded: did not appear to increase | CD8+ T cell (CTL) infiltration of tumours [4]: greatest CD8+ infiltration; also recorded: increase in the CTL infiltration | detection after 24 hours [5]: no detection | half-life [5]: under ten | restoring the MHC-I on A9 cells [6]: effective in restoring the MHC-I

B1: IFN-γ: known inducer of TAP-1 expression, positive control (protein, UniProt P01579 24-161, looked up)
Interferon gamma: QDPYVKEAENLKKYFNAGHSDVADNGTLFLGILKNWKEESDRKIMQSQIVSFYFKLFKNFKDDQSIQKSVETIKEDMNVKFFNSNKKKRDDFEKLTNYSVTDLNVQRKAIHELIQVMAELSPAAKTGKRKRSQMLFRG
TAP promoter-induced GFP expression [7]: high level of GFP expression
